Measured values from patent US6479514B1, “Quinoline-aminomethyl-pyridyl derivatives with anti-helicobacter activity” (Altana Pharma AG, priority 1998, dated 2002).

Tests used:
Helicobacter pylori = assay: Activity against Helicobacter pylori, agar dilution (method of Iwahi et al.), Columbia agar, 4 days growth; assay type: cell-based; details: Columbia agar (Oxoid), growth period of 4 days, approximate values; for MIC50: 96 h, read-out: Appr. MIC 50
Source text: The compounds of the formula I were investigated with respect to their activity against Helicobacter pylori following the method described by Tomoyuki Iwahi et al. (Antimicrobial Agents and Chemotherapy, 1991, 490-496) using Columbia agar (Oxoid) and a growth period of 4 days.

Row | Structure (SMILES) | melting point | MIC50 (Helicobacter pylori) [µg/mL] | Appr. MIC 50 (Helicobacter pylori)
1 | Cc1c(SCCCN2CCNCC2)ccnc1CNc1cnc2ccccc2c1 [Compound 4, [3-Methyl-4-(3-piperazin-1-ylpropylsulfanyl)pyridin-2-ylmethyl]quinolin-3-ylamine] | 105 to 108 °C | – | –
2 | Cc1c(OCCCCSCc2ccncc2)ccnc1CNc1cnc2ccccc2c1 [Compound 6, {3-Methyl-4-[4-(pyridin4-ylmethylsulfanyl)butoxy]pyridin-2-ylmethyl}quinolin3-ylamine] | – | ≤ 0.1 | –
3 | Cc1c(OCCCCSCCn2c([N+](=O)[O-])cnc2C)ccnc1CNc1cnc2ccccc2c1 [Compound 7, (3-Methyl-4-{4-[2-(2-methyl-5-nitroimidazol-1-yl)ethylsulfanyl]butoxy}pyridin-2-ylmethyl)-quinolin-3-ylamine] | 154 to 158 °C | ≤ 0.1 | –
4 | Cc1c(SCCCCSCCn2c([N+](=O)[O-])cnc2C)ccnc1CNc1cnc2ccccc2c1 [Compound 13, (3-Methyl-4-{4-[2-(2-methyl-5-nitroimidazol-1-yl)ethylsulfanylbutyl]sulfanyl}pyridin-2-yl-methyl)quinolin-3-ylamine] | – | – | ≦0.1 μg/ml
5 | Cc1c(OCCCCSc2ncccn2)ccnc1CNc1cnc2ccccc2c1 [Compound 16, {3-Methyl-4-[4-(pyrimidin-2-ylsulfanyl)-butoxy]-pyridin-2-ylmethyl}-quinolin-3-yl-amine] | – | ≤ 0.1 | –
6 | Cc1c(OCCCCSCC2CCCN(C)C2)ccnc1CNc1cnc2ccccc2c1 (stereo not shown) [Compound 20, {3-Methyl-4-[4-(1-methyl-piperidin-3-ylmethylsulfanyl)-butoxy]-pyridin-2-ylmethyl}-quinolin-3-yl-amine] | – | ≤ 0.1 | –
7 | Cc1c(SCCCN2CCN(CC3CN(Cc4ccncc4)C(=O)O3)CC2)ccnc1CNc1cnc2ccccc2c1 (stereo not shown) [Compound 27, 5-(4-{3-[3-Methyl-2-(quinolin-3-ylaminomethyl)-pyridin-4-ylsulfanyl]-propyl}-piperazin-1-ylmethyl)-3-pyridin-4-ylmethyl-oxazolidin-2-one] | – | ≤ 0.1 | –
8 | Cc1c(OCCOCCSCc2ccncc2)ccnc1CNc1cnc2ccccc2c1 [Compound 28, (3-Methyl-4-{2-[2-(pyridin-4-ylmethylsulfanyl)-ethoxy]-ethoxy}-pyridin-2-ylmethyl)-quinolin-3-yl-amine] | – | ≤ 0.1 | –
9 | Cc1c(SCCCSCc2ccccn2)ccnc1CNc1cnc2ccccc2c1 [Compound 29, {3-Methyl-4-[3-(pyridin-2-ylmethylsulfanyl)-propylsulfanyl]-pyridin-2-ylmethyl}-quinolin-3-yl-amine] | – | ≤ 0.1 | –
10 | Cc1c(OCCOCCSCc2cccnc2)ccnc1CNc1cnc2ccccc2c1 [Compound 30, (3-Methyl-4-{2-[2-(pyridin-3-ylmethylsulfanyl)-ethoxy]-ethoxy}-pyridin-2-ylmethyl)-quinolin-3-yl-amine] | 84 to 86 °C | ≤ 0.1 | –
11 | Cc1c(OCCOCCSCc2ccccn2)ccnc1CNc1cnc2ccccc2c1 [Compound 31, (3-Methyl-4-{2-[2-(pyridin-2-ylmethylsulfanyl)-ethoxy]-ethoxy}-pyridin-2-ylmethyl)-quinolin-3-yl-amine] | 65 to 67 °C | ≤ 0.1 | –
12 | Cc1c(SCC2CCCN(C)C2)ccnc1CNc1cnc2ccccc2c1 (stereo not shown) [Compound 32, [3-Methyl-4-(1-methyl-piperidin-3-ylmethylsulfanyl)-pyridin-2-ylmethyl]-quinolin-3-yl-amine] | 106 to 108 °C | ≤ 0.1 | –
13 | Cc1c(OCCSCc2cccnc2)ccnc1CNc1cnc2ccccc2c1 [Compound 33, {3-Methyl-4-[2-(pyridin-3-ylmethylsulfanyl)-ethoxy]-pyridin-2-ylmethyl}-quinolin-3-yl-amine] | – | ≤ 0.1 | –
14 | Cc1c(OCCSCc2ccccn2)ccnc1CNc1cnc2ccccc2c1 [Compound 34, {3-Methyl-4-[2-(pyridin-2-ylmethylsulfanyl)-ethoxy]-pyridin-2-ylmethyl}-quinolin-3-yl-amine] | – | ≤ 0.1 | –
15 | Cc1c(SCCSCc2cccnc2)ccnc1CNc1cnc2ccccc2c1 [Compound 35, {3-Methyl-4-[2-(pyridin-3-ylmethylsulfanyl)-ethylsulfanyl]-pyridin-2-ylmethyl}-quinolin-3-yl-amine] | – | ≤ 0.1 | –
16 | Cc1c(SCCOCC(F)(F)F)ccnc1CNc1cnc2ccccc2c1.Cl [Compound 36, (3-Methyl-4-{2-[2,2,2-trifluoro-ethoxy)-ethylsulfanyl}-pyridin-2-ylmethyl)-quinolin-3-yl-amine hydrochloride] | 212 to 215 °C (dec.) | ≤ 0.1 | –

Results, then the compound that gave them:

Row | melting point | MIC50 (Helicobacter pylori) [µg/mL] | Appr. MIC 50 (Helicobacter pylori) | Structure (SMILES)
17 | 98 to 100 °C | ≤ 0.1 | – | Cc1c(SCCCSCC2CN(C)C(=O)O2)ccnc1CNc1cnc2ccccc2c1 (stereo not shown) [Compound 1, 3-Methyl-5-{3-[3-methyl-2-(quinolin-3-ylaminomethyl)pyridin4-ylsulfanyl]propylsulfanylmethyl}oxazolidin-2-one]
18 | – | ≤ 0.1 | – | Cc1c(SCCCSc2ncccn2)ccnc1CNc1cnc2ccccc2c1 [Compound 2, {3-Methyl4-[3-(pyrimidin-2-ylsulfanyl)propylsulfanyl]pyridin-2-ylmethyl}quinolin-3-ylamine]
19 | – | ≤ 0.1 | – | Cc1c(SCCSCc2ccncc2)ccnc1CNc1cnc2ccccc2c1 [Compound 8, {3-Methyl-4-[2-(pyridin-4-ylmethylsulfanyl)ethylsulfanyl]pyridin-2-ylmethyl}quinolin-3-ylamine]
20 | 152 to 154 °C | ≤ 0.1 | – | Cc1c(SCCSCCn2c([N+](=O)[O-])cnc2C)ccnc1CNc1cnc2ccccc2c1 [Compound 9, (3-Methyl-4-{2-[2-(2-methyl-5-nitroimidazol-1-yl)ethylsulfanyl]ethylsulfanyl}pyridin-2-ylmethyl)quinolin-3-ylamine]
21 | – | ≤ 0.1 | – | Cc1c(SCCCN2CCN(Cc3ccncc3)CC2)ccnc1CNc1cnc2ccccc2c1 [Compound 10, {3-Methyl-4-[3-(4-pyridin-4-ylmethylpiperazin-1-yl)propylsulfanyl]pyridin-2-ylmethyl}-quinolin-3-ylamine]
22 | – | ≤ 0.1 | – | Cc1c(SCCCSCC2CCCN(C)C2)ccnc1CNc1cnc2ccccc2c1.O=C(O)C(=O)O (stereo not shown) [Compound 11, {3-Methyl-4-[3-(1-methylpiperidin-3-ylmethylsulfanyl)propylsulfanyl]pyridin-2-ylmethyl}-quinolin-3-ylamine oxalate]
23 | – | ≤ 0.1 | – | Cc1c(SCCCSCc2ccncc2)ccnc1CNc1cnc2ccccc2c1 [Compound 12, {3-Methyl-4-[3-(pyridin-4-ylmethylsulfanyl)propylsulfanyl]pyridin-2-ylmethyl}quinolin-3-ylamine]
24 | – | ≤ 0.1 | – | Cc1c(SCCCSCc2ccc(Cl)s2)ccnc1CNc1cnc2ccccc2c1 [Compound 14, {4-[3-(5-Chlorothiophen-2-ylmethylsulfanyl)propylsulfanyl]-3-methylpyridin-2-ylmethyl}-quinolin-3-ylamine]
25 | 133 to 135 °C | ≤ 0.1 | – | Cc1c(SCCCSCCn2c([N+](=O)[O-])cnc2C)ccnc1CNc1cnc2ccccc2c1 [Compound 15, (3-Methyl-4-{3-[2-(2-methyl-5-nitroimidazol-1-yl)ethylsulfanyl]propylsulfanyl}-pyridin-2-ylmethyl)quinolin-3-ylamine]
26 | 100 to 104 °C | ≤ 0.1 | – | Cc1c(SCCCSCC2CN(C(C)C)C(=O)O2)ccnc1CNc1cnc2ccccc2c1 (stereo not shown) [Compound 17, 3-Isopropyl-5-{3-[3-methyl-2-(quinolin-3-ylaminomethyl)-pyridin-4-ylsulfanyl]-propylsulfanylmethyl}-oxazolidin-2-one]
27 | 95 to 99 °C | ≤ 0.1 | – | Cc1c(SCCCSCCCn2cc([N+](=O)[O-])nc2C)ccnc1CNc1cnc2ccccc2c1 [Compound 18, (3-Methyl-4-{3-[3-(2-methyl-4-nitro-imidazol-1-yl)-propylsulfanyl]-propylsulfanyl}-pyridin-2-ylmethyl)-quinolin-3-yl-amine]
28 | 78 to 81 °C | ≤ 0.1 | – | Cc1c(SCCCSCC2CN(CC3CC3)C(=O)O2)ccnc1CNc1cnc2ccccc2c1 (stereo not shown) [Compound 19, 3-Cyclopropylmethyl-5-{3-[3-methyl-2-(quinolin-3-ylaminomethyl)-pyridin-4ylsulfanyl]-propylsulfanylmethyl}-oxazolidin-2-one]
29 | – | ≤ 0.1 | – | Cc1c(OCCSCc2ccncc2)ccnc1CNc1cnc2ccccc2c1 [Compound 21, {3-Methyl-4-[2-(pyridin-4-ylmethylsulfanyl)-ethoxy]-pyridin-2-ylmethyl}-quinolin-3-yl-amine]
30 | 152 to 155 °C | ≤ 0.1 | – | Cc1c(OCCSCCn2c([N+](=O)[O-])cnc2C)ccnc1CNc1cnc2ccccc2c1 [Compound 22, (3-Methyl-4-{2-[2-(2-methyl-5-nitro-imidazol-1-yl)-ethylsulfanyl]-ethoxy}-pyridin-2-ylmethyl)-quinolin-3-yl-amine]
31 | 138 to 141 °C | ≤ 0.1 | – | Cc1c(OCCCSCCn2c([N+](=O)[O-])cnc2C)ccnc1CNc1cnc2ccccc2c1 [Compound 23, (3-Methyl-4-{3-[2-(2-methyl-5-nitro-imidazol-1-yl)-ethylsulfanyl]-propoxy}-pyridin-2-ylmethyl)-quinolin-3-yl-amine]
32 | – | ≤ 0.1 | – | Cc1c(OCCCSCc2ccncc2)ccnc1CNc1cnc2ccccc2c1 [Compound 24, {3-Methyl-4-[3-(pyridin-4-ylmethylsulfanyl)-propoxy]-pyridin-2-ylmethyl}-quinolin-3-yl-amine]
33 | 125 to 126 °C | ≤ 0.1 | – | Cc1c(SCCCSCCO)ccnc1CNc1cnc2ccccc2c1 [Compound 25, 2-{3-[3-Methyl-2-(quinolin-3-ylaminomethyl)-pyridin-4-ylsulfanyl]-propylsulfanyl}-ethanol]
34 | 119 to 120 °C | ≤ 0.1 | – | Cc1c(OCCCCSCCO)ccnc1CNc1cnc2ccccc2c1 [Compound 26, 2-{4-[3-Methyl-2-(quinolin3-ylaminomethyl)-pyridin-4-yloxy]-butylsulfanyl}-ethanol]
